This note sets out measurements from patent US20100249172A1, “9-CHLORO NOSCAPINE AND ITS USE IN TREATING CANCERS, INCLUDING DRUG-RESISTANT CANCERS” (EMORY UNIVERSITY, priority 2007, published 2010).

For one series, the target named is T1, tubulin.
T1 construct: other: 2 μM tubulin, 45 min at 37° C., pH 6.8; mean±SD, four experim
As to the kind of experiment: Tubulin binding assay (fluorescence titration / quenching). Also on record: species or system mammalian. Particulars: 2 μM tubulin, 45 min at 37° C., pH 6.8; mean±SD, four experiments; read-out: dissociation constant (Kd) for binding to tubulin. How it is done:
Cell culture reagents were obtained from Mediatech, Cellgro. CEM, a human lymphoblastoid line was provided by Dr. William T. Beck (Cancer Center, University of Illinois at Chicago). MCF-7 cells were maintained in Dulbecco's Modification of Eagle's Medium 1× (DMEM) with 4.5 g/L glucose and L-glutamine (Mediatech, Cellgro) supplemented with 10% fetal bovine serum (Invitrogen, Carlsbad, Calif.) and 1% penicillin/streptomycin (Mediatech, Cellgro). MDA-MB-231 and CEM cells were grown in RPMI-1640 medium supplemented with 10% fetal bovine serum, and 1% penicillin/streptomycin. […]
Fluorescence titration for determining the tubulin binding parameters was performed as described previously. […] The relative intrinsic fluorescence intensity of tubulin was then monitored in a JASCO FP-6500 spectrofluorometer (JASCO, Tokyo, Japan) using a cuvette of 0.3-cm path length, and the excitation wavelength was 295 nm. The fluorescence emission intensity of noscapine and its derivatives at this excitation wavelength was negligible. A 0.3-cm path-length cuvette was used to minimize the inner filter effects caused by the absorbance of these agents at higher concentration ranges. In addition, the inner filter effects were corrected using a formula F corrected ═F observed•antilog [(Aex+Aem)/2], where Aex is the absorbance at the excitation wavelength and Aem is the absorbance at the emission wavelength. […]

In a further series the test system is MCF-7 cells. The experiment in a line: Sulforhodamine B (SRB) cell proliferation assay. Type of series: cell-based. The settings on record: Homo sapiens, MCF7, MCF-7, 72 hours drug treatment. As for the experimental part:
(§1) Sulforhodamine B (SRB) assay: The cell proliferation assay was performed in 96-well plates as described previously. Adherent cells (MCF-7 and MDA-MB-231) were seeded in 96-well plates at a density of 5×10^3 cells per well. They were treated with increasing concentrations of the halogenated analogs the next day while in log-phase growth. After 72 hours of drug treatment, cells were fixed with 50% trichloroacetic acid and stained with 0.4% sulforhodamine B dissolved in 1% acetic acid. After 30 minutes, cells were then washed with 1% acetic acid to remove the unbound dye. The protein-bound dye was extracted with 10 mM Tris base to determine the optical density at 564-nm wavelength.
(§2) Suspension cells (CEM) were seeded into 96-well plates at a density of 5×10^3 cells per well and were treated with increasing concentrations of all halogenated analogs for 72 hours. Measurement of cell proliferation was performed colorimetrically by 3-(4,5-dimethylthiazol-2-yl)-5-(3-carboxymethoxyphenyl)-2-(4-sulphophenyl)-2H-tetrazolium, inner salt (MTS) assay, using the CellTiter96 AQueous One Solution Reagent (Promega, Madison, Wis.). Cells were exposed to MTS for 3 hours and absorbance was measured using a microplate reader (Molecular Devices, Sunnyvale, Calif.) at an optical density (OD) of 490 nm. […]

The test system of series [1] is MDA-MB-231 cells. As to the kind of experiment: Sulforhodamine B (SRB) cell proliferation assay. Type of series: cell-based. Particulars: Homo sapiens, MDA-MB-231, 72 hours drug treatment. As for the experimental part:
as §1, §2

For series [2], the system named is MDA-MB-231 cells. The experiment in a line: DAPI staining, cell morphology by fluorescence microscopy. Type of series: cell-based, human. Particulars: 25 μM, 72 hours. How it is done: FIG. 2 is a series of photographs showing the effect of 9-chloro-nos on the morphology of cancer cells. Morphologic criteria for apoptotic cell death include, for example, chromatin condensation with aggregation along the nuclear envelope and plasma membrane blebbing followed by separation into small, apoptotic bodies. Panels show morphological evaluation of nuclei stained with DAPI from control cells (upper panels) and cells treated with 25 μM concentration of 9-Cl-nos for 72 hours (lower panels) using fluorescence microscopy. […] (Scale bar=15 μm).
Cell morphology was evaluated by fluorescence microscopy following DAPI staining (Vectashield, Vector Labs, Inc., Burlingame, Calif.). MDA-MB-231 cells were grown on poly-L-lysine coated coverslips in 6-well plates and were treated with the halogenated analogs at 25 μM for 72 hours. After incubation, coverslips were fixed in cold methanol and washed with PBS, stained with DAPI, and mounted on slides. Images were captured using a BX60 microscope (Olympus, Tokyo, Japan) with an 8-bit camera (Dage-MTI, Michigan City, Ind.) and IP Lab software (Scanalytics, Fairfax, Va.). Apoptotic cells were identified by features characteristic of apoptosis (e.g. nuclear condensation, formation of membrane blebs and apoptotic bodies).

The subject of series [3] is 1A9 (ovarian cancer cells). The experiment in a line: Inhibition of cell proliferation. Type of series: cell-based.
Series [4] deals with CEM/VM-1-5 (teniposide-resistant variant). As to the kind of experiment: Inhibition of cell proliferation. Type of series: cell-based, human.
Series [5] has as its system normal human fibroblast cells. As to the kind of experiment: Cell cycle progression in normal cells. It is filed as cell-based.
A further series relates to caspase-3. As to the kind of experiment: Apoptotic mechanism in cancer cells. It is filed as cell-based.

For the compound `COc1ccc2c(c1OC)C(=O)O[C@@H]2[C@H]1c2c(c(Cl)c3c(c2OC)OCO3)CCN1C` [9-Cl-nos, (S)-3-((R)-9-chloro-4-methoxy-6-methyl-5,6,7,8-tetrahydro-[1,3]dioxolo[4,5-g]isoquinolin-5-yl)-6,7-dimethoxyisobenzofuran-1(3H)-one], the Kd on tubulin was found to be 40 ± 8 µM. The figures for the IC50 in the series with MCF-7 cells and in the series with MDA-MB-231 cells [1] were 1.9 ± 0.3 µM and 3.5 ± 0.4 µM, respectively. Besides, the “nuclear morphology, features of apoptotic cells” value with MDA-MB-231 cells [2] is “condensed chromosomes, numerous fragmented micronuclei, and apoptotic bodies are evident”. Further, the “inhibition of cell proliferation (in words)” value in series [3] and in series [4] was “effectively inhibits cell proliferation” throughout. Further, the “effect on cell cycle of normal cells” value in series [5] is “without affecting the cell cycle”. Besides, the caspase-3 activation entry with caspase-3 is listed as “associated with activation of the key executioner cysteine protease, caspase-3”.

A word on the Kd: it is the equilibrium constant for the complex coming apart. By IC50 is commonly meant the midpoint of a concentration-inhibition curve. The low end stands for greater potency, the high end for weaker potency.
